According to patent US9175003B2, “Substituted azoanthracene derivatives and intermediates for preparation thereof” (TransTech Pharma, LLC, priority 2009, dated 2015):

The molecules below were run against human GLP-1 receptor (Homo sapiens (Human), UniProt P43220). Details: read-out: Mean EC50; cAMP, HTRF detection, 30 min at 37° C., HEK-293 cells expressing cloned human GLP-1 receptor.
Chain of human GLP-1 receptor (P43220 24-463): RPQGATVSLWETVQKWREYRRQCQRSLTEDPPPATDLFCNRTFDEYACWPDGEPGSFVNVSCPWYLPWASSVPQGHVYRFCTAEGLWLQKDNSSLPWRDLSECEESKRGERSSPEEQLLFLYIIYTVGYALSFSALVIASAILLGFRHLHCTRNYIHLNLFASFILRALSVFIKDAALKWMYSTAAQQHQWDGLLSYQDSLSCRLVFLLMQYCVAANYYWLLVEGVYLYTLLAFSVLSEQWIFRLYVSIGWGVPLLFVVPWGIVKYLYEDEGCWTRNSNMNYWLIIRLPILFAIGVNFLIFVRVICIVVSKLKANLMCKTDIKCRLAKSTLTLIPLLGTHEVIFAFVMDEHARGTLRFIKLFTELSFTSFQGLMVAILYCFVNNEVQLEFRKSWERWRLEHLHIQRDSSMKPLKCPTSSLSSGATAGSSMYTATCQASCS
In the case of Cc1nc(C(=O)N2Cc3cc4c(cc3C[C@H]2C(=O)N[C@@H](Cc2ccc(-c3ccnc(C)c3C)cc2)C(=O)O)OC[C@H](c2ccc(OCC3CCC(F)(F)CC3)cc2)O4)c(C)o1 [Example 223, (S)-2-{[(3S,8S)-3-[4-(4,4-Difluoro-cyclohexylmethoxy)-phenyl]-7-(2,5-dimethyl-oxazole-4-carbonyl)-2,3,6,7,8,9-hexahydro-[1,4]dioxino[2,3-g]isoquinoline-8-carbonyl]-amino}-3-[4-(2,3-dimethyl-pyridin-4-yl)-phenyl]propionic acid], the EC50 is reported as 176 nM.
Work on Cc1nc(C(=O)N2Cc3cc4c(cc3C[C@H]2C(=O)N[C@@H](Cc2ccc(-c3ccnc(C)c3C)cc2)C(=O)O)OC[C@H](c2ccc(OCC3CCC(C(F)(F)F)CC3)cc2)O4)c(C)o1 (stereo partly drawn) [Example 225, (S)-2-({(3S,8S)-7-(2,5-Dimethyl-oxazole-4-carbonyl)-3-[4-(4-trifluoromethyl-cyclohexylmethoxy)-phenyl]-2,3,6,7,8,9-hexahydro-[1,4]dioxino[2,3-g]isoquinoline-8-carbonyl}-amino)-3-[4-(2,3-dimethyl-pyridin-4-yl)-phenyl]-propionic acid] yielded an EC50 of 183 nM.
Molecule Cc1nccc(-c2ccc(C[C@H](NC(=O)[C@@H]3Cc4cc5c(cc4CN3Cc3ncccc3F)O[C@@H](c3ccc(OCc4ccc(Cl)c(Cl)c4)cc3)CO5)C(=O)O)cc2)c1C [Example 228, (S)-2-{[(3S,8S)-3-[4-(3,4-Dichloro-benzyloxy)-phenyl]-7-(3-fluoro-pyridin-2-ylmethyl)-2,3,6,7,8,9-hexahydro-[1,4]dioxino[2,3-g]isoquinoline-8-carbonyl]-amino}-3-[4-(2,3-dimethyl-pyridin-4-yl)-phenyl]-propionic acid] has an EC50 of 22 nM.
COc1cccc(CN2Cc3cc4c(cc3C[C@H]2C(=O)N[C@@H](Cc2ccc(-c3ccnc(C)c3C)cc2)C(=O)O)OC[C@H](c2ccc(OCc3ccc(Cl)c(Cl)c3)cc2)O4)n1 [Example 229, (S)-2-{[(3S,8S)-3-[4-(3,4-Dichloro-benzyloxy)-phenyl]-7-(6-methoxy-pyridin-2-ylmethyl)-2,3,6,7,8,9-hexahydro-[1,4]dioxino[2,3-g]isoquinoline-8-carbonyl]-amino}-3-[4-(2,3-dimethyl-pyridin-4-yl)phenyl]-propionic acid] was tested, and the EC50 was 76 nM.
In the case of Cc1nccc(-c2ccc(C[C@H](NC(=O)[C@@H]3Cc4cc5c(cc4CN3Cc3nccn3C)O[C@@H](c3ccc(OCc4ccc(Cl)c(Cl)c4)cc3)CO5)C(=O)O)cc2)c1C [Example 230, (S)-2-{[(3S,8S)-3-[4-(3,4-Dichloro-benzyloxy)-phenyl]-7-(1-methyl-1H-imidazol-2-ylmethyl)-2,3,6,7,8,9-hexahydro-[1,4]dioxino[2,3-g]isoquinoline-8-carbonyl]-amino}-3-[4-(2,3-dimethyl-pyridin-4-yl)phenyl]-propionic acid], the EC50 is reported as 18 nM.
Cc1nccc(-c2ccc(C[C@H](NC(=O)[C@@H]3Cc4cc5c(cc4CN3Cc3nccs3)O[C@@H](c3ccc(OCc4ccc(Cl)c(Cl)c4)cc3)CO5)C(=O)O)cc2)c1C [Example 231, (S)-2-({(3S,8S)-3-[4-(3,4-Dichloro-benzyloxy)-phenyl]-7-thiazol-2-ylmethyl-2,3,6,7,8,9-hexahydro-[1,4]dioxino[2,3-g]isoquinoline-8-carbonyl}-amino)-3-[4-(2,3-dimethyl-pyridin-4-yl)-phenyl]-propionic acid] was tested, and the EC50 was 39 nM.
Cc1nc(CN2Cc3cc4c(cc3C[C@H]2C(=O)N[C@@H](Cc2ccc(-c3ccnc(C)c3C)cc2)C(=O)O)OC[C@H](c2ccc(OCc3ccc(Cl)c(Cl)c3)cc2)O4)c(C)o1 [Example 232, (S)-2-{[(3S,8S)-3-[4-(3,4-Dichloro-benzyloxy)-phenyl]-7-(2,5-dimethyl-oxazol-4-ylmethyl)-2,3,6,7,8,9-hexahydro-[1,4]dioxino[2,3-g]isoquinoline-8-carbonyl]-amino}-3-[4-(2,3-dimethyl-pyridin-4-yl)-phenyl]-propionic acid] gave an EC50 of 133 nM.
With Cc1nccc(-c2ccc(C[C@H](NC(=O)[C@@H]3Cc4cc5c(cc4CN3C(=O)c3ccccn3)O[C@@H](c3ccc(OCc4ccc(Cl)c(Cl)c4)cc3)CO5)C(=O)O)cc2)c1C [Example 236, (S)-2-{[(3S,8S)-3-[4-(3,4-Dichloro-benzyloxy)-phenyl]-7-(pyridine-2-carbonyl)-2,3,6,7,8,9-hexahydro-[1,4]dioxino[2,3-g]isoquinoline-8-carbonyl]-amino}-3-[4-(2,3-dimethyl-pyridin-4-yl)-phenyl]-propionic acid] the EC50 was 56 nM.
Cc1ncoc1C(=O)N1Cc2cc3c(cc2C[C@H]1C(=O)N[C@@H](Cc1ccc(-c2ccnc(C)c2C)cc1)C(=O)O)OC[C@H](c1ccc(OCc2ccc(Cl)c(Cl)c2)cc1)O3 [Example 238, (S)-2-{[(3S,8S)-3-[4-(3,4-Dichloro-benzyloxy)-phenyl]-7-(4-methyl-oxazole-5-carbonyl)-2,3,6,7,8,9-hexahydro-[1,4]dioxino[2,3-g]isoquinoline-8-carbonyl]-amino}-3-[4-(2,3-dimethyl-pyridin-4-yl)-phenyl]-propionic acid] was tested, and the EC50 was 146 nM.
For Cc1nccc(-c2ccc(C[C@H](NC(=O)[C@@H]3Cc4cc5c(cc4CN3C(=O)N[C@@H](C)c3ccccc3)O[C@@H](c3ccc(OCc4ccc(Cl)c(Cl)c4)cc3)CO5)C(=O)O)cc2)c1C [Example 239, (S)-2-{[(3S,8S)-3-[4-(3,4-Dichloro-benzyloxy)-phenyl]-7-((S)-1-phenyl-ethylcarbamoyl)-2,3,6,7,8,9-hexahydro-[1,4]dioxino[2,3-g]isoquinoline-8-carbonyl]-amino}-3-[4-(2,3-dimethyl-pyridin-4-yl)-phenyl]-propionic acid], the EC50 was 82 nM.
Cc1nccc(-c2ccc(C[C@H](NC(=O)[C@@H]3Cc4cc5c(cc4CN3C(=O)N[C@H](C)c3ccccc3)O[C@@H](c3ccc(OCc4ccc(Cl)c(Cl)c4)cc3)CO5)C(=O)O)cc2)c1C [Example 240, (S)-2-{[(3S,8S)-3-[4-(3,4-Dichloro-benzyloxy)-phenyl]-7-((R)-1-phenyl-ethylcarbamoyl)-2,3,6,7,8,9-hexahydro-[1,4]dioxino[2,3-g]isoquinoline-8-carbonyl]-amino}-3-[4-(2,3-dimethyl-pyridin-4-yl)-phenyl]-propionic acid] showed an EC50 of 56 nM.
Molecule Cc1ccc(NC(=O)N2Cc3cc4c(cc3C[C@H]2C(=O)N[C@@H](Cc2ccc(-c3ccnc(C)c3C)cc2)C(=O)O)OC[C@H](c2ccc(OCc3ccc(Cl)c(Cl)c3)cc2)O4)cc1 [Example 243, (S)-2-({(3S,8S)-3-[4-(3,4-Dichloro-benzyloxy)-phenyl]-7-p-tolylcarbamoyl-2,3,6,7,8,9-hexahydro-[1,4]dioxino[2,3-g]isoquinoline-8-carbonyl}-amino)-3-[4-(2,3-dimethyl-pyridin-4-yl)-phenyl]-propionic acid] has an EC50 of 92 nM.
CC[C@H](NC(=O)N1Cc2cc3c(cc2C[C@H]1C(=O)N[C@@H](Cc1ccc(-c2ccnc(C)c2C)cc1)C(=O)O)OC[C@H](c1ccc(OCc2ccc(Cl)c(Cl)c2)cc1)O3)c1ccccc1 [Example 245, (S)-2-{[(3S,8S)-3-[4-(3,4-Dichloro-benzyloxy)-phenyl]-7-((S)-1-phenyl-propylcarbamoyl)-2,3,6,7,8,9-hexahydro-[1,4]dioxino[2,3-g]isoquinoline-8-carbonyl]-amino}-3-[4-(2,3-dimethyl-pyridin-4-yl)-phenyl]-propionic acid] gave an EC50 of 203 nM.
